Assay results reported in ChEMBL document CHEMBL1134867, “Synthesis and initial structure-activity relationships of a novel series of imidazolo[1,2-a]pyrimid-5-ones as potent GnRH receptor antagonists” (Bioorg Med Chem Lett, 2002).

Columns and labels:
[1] = target: T1, Gonadotropin-releasing hormone receptor (Homo sapiens, UniProt P30968); test: Ability to inhibit [125I-Tyr5,DLeu6,NMeLeu7,Pro9-NEt]GnRH agonist binding to the cloned human Gonadotropin-releasing hormone receptor was evaluated
T1 sequence (P30968 whole entry): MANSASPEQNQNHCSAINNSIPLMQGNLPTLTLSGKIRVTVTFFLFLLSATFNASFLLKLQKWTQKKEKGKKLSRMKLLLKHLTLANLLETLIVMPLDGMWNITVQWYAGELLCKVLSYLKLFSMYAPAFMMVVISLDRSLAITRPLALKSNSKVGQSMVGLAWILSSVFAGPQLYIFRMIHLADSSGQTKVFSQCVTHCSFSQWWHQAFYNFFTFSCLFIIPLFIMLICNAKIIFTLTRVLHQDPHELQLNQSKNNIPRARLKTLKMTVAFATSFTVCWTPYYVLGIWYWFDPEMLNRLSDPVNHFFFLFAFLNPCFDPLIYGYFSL

[2] = Oral bioavailability in rat; assay type: ADME, organism-based; details: in vivo
[3] = target: T1, Gonadotropin-releasing hormone receptor; test: Ability of compound to inhibit [125I-Tyr5,DLeu6,NMeLeu7,Pro9-NEt]GnRH agonist binding to the cloned human Gonadotropin-releasing hormone receptor was evaluated
[4] = target: T2, Gonadotropin-releasing hormone receptor (Rattus norvegicus, UniProt P30969); test: Ability of compound to inhibit [125I-Tyr5,DLeu6,NMeLeu7,Pro9-NEt]GnRH agonist binding to the rat Gonadotropin-releasing hormone receptor was evaluated
T2 sequence (P30969 whole entry): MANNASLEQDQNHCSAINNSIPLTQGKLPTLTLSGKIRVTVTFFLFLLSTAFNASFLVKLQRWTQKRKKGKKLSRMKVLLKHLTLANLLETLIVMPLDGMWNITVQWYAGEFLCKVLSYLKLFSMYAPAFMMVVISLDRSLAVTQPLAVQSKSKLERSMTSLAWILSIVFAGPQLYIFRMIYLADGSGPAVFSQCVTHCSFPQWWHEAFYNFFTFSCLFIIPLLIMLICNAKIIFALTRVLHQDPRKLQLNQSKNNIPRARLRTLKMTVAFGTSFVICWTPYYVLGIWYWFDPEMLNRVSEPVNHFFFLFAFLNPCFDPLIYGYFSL

CCCC(=O)Nc1ccc(-c2cn3c(=O)c(C(=O)OCC)cn(Cc4ccccc4F)c3n2)cc1
Ki [1]: 30000 nM

CCC(CC)OC(=O)c1cn(Cc2ccccc2F)c2nc(-c3ccc(NC(=O)C(C)C)cc3)c(CN(C)Cc3ccccc3)n2c1=O
Ki [1]: 41 nM

CCCC(=O)Nc1ccc(-c2nc3n(Cc4ccccc4F)cc(C(=O)OC(CC)CC)c(=O)n3c2CN(C)CCc2ccccn2)cc1
Ki [1]: 7.5 nM

CCCC(=O)Nc1ccc(-c2nc3n(Cc4ccccc4F)cc(C(=O)OC(CC)CC)c(=O)n3c2CN(C)CCOC)cc1
Ki [1]: 36 nM

CC[C@H]1OC(=O)[C@H](C)[C@@H](OC(=O)N2C(=O)OC[C@@H]2C)[C@H](C)[C@@H](O[C@@H]2O[C@H](C)C[C@H](N(C)CC3CC3)[C@H]2O)[C@@](C)(OC)C[C@@H](C)C(=O)[C@H](C)[C@H]2N(CCc3ccc(Cl)c(Cl)c3)C(=O)O[C@]12C
bioavailability [2]: 15.2% | Ki [3]: 2 nM | Ki [4]: 0.631 nM

CCCC(=O)Nc1ccc(-c2nc3n(Cc4ccccc4F)cc(C(=O)OC(CC)CC)c(=O)n3c2CN(C)Cc2cccnc2)cc1
Ki [1]: 52 nM

CCCC(=O)Nc1ccc(-c2nc3n(Cc4ccccc4F)cc(C(=O)OC(CC)CC)c(=O)n3c2CN(C)CCc2ccccc2)cc1
Ki [1]: 14 nM

CCCC(=O)Nc1ccc(-c2nc3n(Cc4ccccc4F)cc(C(=O)OC(CC)CC)c(=O)n3c2CN2CCc3ccccc3C2)cc1
Ki [1]: 290 nM

CCCC(=O)Nc1ccc(-c2nc3n(Cc4ccccc4F)cc(C(=O)OCC)c(=O)n3c2CN(C)Cc2ccccc2)cc1
Ki [1]: 80 nM

CCOC(=O)c1cn(Cc2ccccc2F)c2nc(-c3ccc(OC)cc3)c(CN(C)Cc3ccccc3)n2c1=O
Ki [1]: 950 nM

CCCC(=O)Nc1ccc(-c2cn3c(=O)c(C(=O)OC(CC)CC)cn(Cc4ccccc4F)c3n2)cc1
Ki [1]: 28000 nM

CCCC(=O)Nc1ccc(-c2nc3n(Cc4ccccc4F)cc(C(=O)OC(CC)CC)c(=O)n3c2CN2CCCC2)cc1
Ki [1]: 2200 nM

CCCC(=O)Nc1ccc(-c2nc3n(Cc4ccccc4F)cc(C(=O)OC(CC)CC)c(=O)n3c2CN(C)CC#N)cc1
Ki [1]: 300 nM

CCOC(=O)c1cn(Cc2ccccc2F)c2nc(-c3ccc(OC)cc3)c(CN(C)CCc3ccccn3)n2c1=O
Ki [1]: 230 nM

CCCC(=O)Nc1ccc(-c2nc3n(Cc4ccccc4F)cc(C(=O)OCC)c(=O)n3c2CN(C)CCc2ccccn2)cc1
Ki [1]: 12 nM

Cc1cc(-c2c(O)nc3cc(Cl)c(C(=O)Nc4ncccn4)cc3c2OCC[C@@H]2CCN2)cc(C)c1C
IC50 [3]: 0.44 nM | IC50 [4]: 4 nM

CCCC(=O)Nc1ccc(-c2nc3n(Cc4ccccc4F)cc(C(=O)OC(CC)CC)c(=O)n3c2CN(C)Cc2ccco2)cc1
Ki [1]: 29 nM
